Patent US7015306B2 (BioSynthema, Inc., priority 1999, dated 2006)
Where a SMILES comes first, the peptide text is derived from it. [ ]: non-standard residue; d: D form. The star is where a group is joined. ξ: configuration not given here. DTPA = O=C(O)CN(CCN(CC(=O)O)CC(=O)O)CCN(CC(=O)O)CC(=O)*; ξGly(4-Pip(1-amidino)) = N=C(N)N1CCC(C(N)C(=O)O)CC1; ξPhe(4-guanidino) = N=C(N)Nc1ccc(CC(N)C(=O)O)cc1; ξGly(piperidin-4-yl) = NC(C(=O)O)C1CCNCC1; Dmt = Cc1cc(O)cc(C)c1C[C@H](N)C(=O)O; Pro(4-oxo) = O=C1CN[C@H](C(=O)O)C1; tBuAla = CC(C)(C)C[C@H](N)C(=O)O; Cha = N[C@@H](CC1CCCCC1)C(=O)O; Tle = CC(C)(C)[C@H](N)C(=O)O; Pip = O=C(O)[C@@H]1CCCCN1; dPip = O=C(O)[C@H]1CCCCN1; Ac6c = NC1(C(=O)O)CCCCC1; Aze = O=C(O)[C@@H]1CCN1

Columns and labels:
neurotensin receptors = neurotensin receptors (Homo sapiens, UniProt P30989); experiment: Competitive binding assay on frozen tissue sections of receptor-positive human tumors vs radioiodinated native neurotensin; details: for Kd: Table 3
Sequence of neurotensin receptors (P30989 whole entry): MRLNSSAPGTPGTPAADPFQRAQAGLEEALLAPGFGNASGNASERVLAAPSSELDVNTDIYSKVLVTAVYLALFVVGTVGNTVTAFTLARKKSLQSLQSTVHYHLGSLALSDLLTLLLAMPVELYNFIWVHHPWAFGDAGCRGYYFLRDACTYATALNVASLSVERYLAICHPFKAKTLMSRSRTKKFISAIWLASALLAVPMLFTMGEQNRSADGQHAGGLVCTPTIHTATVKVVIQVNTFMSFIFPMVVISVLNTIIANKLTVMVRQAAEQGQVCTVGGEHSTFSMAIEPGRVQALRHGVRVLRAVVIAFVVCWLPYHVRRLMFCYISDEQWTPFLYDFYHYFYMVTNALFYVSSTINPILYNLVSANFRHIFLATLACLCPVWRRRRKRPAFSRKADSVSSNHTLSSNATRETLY
Source text: Frozen tissue sections from receptor-positive human tumors were used in a competitive binding assay.

[1] = In vitro serum stability assay (HPLC) of In-111 labeled peptide; assay type: in vitro ADME, human; details: human serum, 37EC, 4 hours
Description: (§1) All reagents were purchased from Sigma unless otherwise noted. The peptide and ^111InCl3 in 0.05 N HCl were incubated in a sodium acetate/ascorbic acid buffer for 30 minutes at room temperature. The reaction was diluted with 5% ethanol/95% PBS before using in subsequent in vitro assays.
(§2) Human serum was purchased from Sigma (H 1388). The labeled peptide was incubated in either human serum or rat urine at 37EC for the specified amount of time. An aliquot was filtered through a 0.45 μm syringe filter prior to HPLC injection.

[2] = In vitro urine stability assay (HPLC) of In-111 labeled peptide; assay type: in vitro ADME; details: rat urine, 37EC, 4 hours
Description: as §1, §2

Row | SMILES | IC50 (neurotensin receptors; C-terminus modified derivatives) [nM] | Kd (neurotensin receptors) [nM] | % of peptide at 4 hours after incubation at 37EC, Serum [1] [%] | % of peptide at 4 hours after incubation at 37EC, Urine [2] [%]
1 | CC(C)C[C@H](NC(=O)[C@@H](NC(=O)[C@H](Cc1ccc(O)cc1)NC(=O)[C@@H]1CCCN1C(=O)[C@H](CCCNC(=N)N)NC(=O)C(Cc1ccc(NC(=N)N)cc1)NC(=O)[C@@H]1CCCN1C(=O)[C@@H](CCCCN)NC(=O)CN(CCN(CCN(CC(=O)O)CC(=O)O)CC(=O)O)CC(=O)O)C(C)(C)C)C(=O)O (stereo partly drawn) [Compound IX, DTPA-DLys-Pro-Phe(4-guanyl)-Arg-Pro-Tyr-tBuGly-Leu-OH] ({DTPA}-[dK]P[ξPhe(4-guanidino)]RPY[Tle]L-OH) | 12.5 | 12.5 | 72.0 | 51.1
2 | CC(C)C[C@H](NC(=O)[C@@H](NC(=O)[C@H](Cc1ccc(O)cc1)NC(=O)[C@@H]1CCCN1C(=O)[C@H](CCCNC(=N)N)NC(=O)C(NC(=O)[C@@H]1CCCN1C(=O)C(NC(=O)CN(CCN(CCN(CC(=O)O)CC(=O)O)CC(=O)O)CC(=O)O)C1CCNCC1)C1CCN(C(=N)N)CC1)C(C)(C)C)C(=O)O (stereo partly drawn) [Compound XI, DTPA-PipGly-Pro-Gly(PipAm)-Arg-Pro-Tyr-tBuGly-Leu-OH] ({DTPA}-[ξGly(piperidin-4-yl)]P[ξGly(4-Pip(1-amidino))]RPY[Tle]L-OH) |  | 3.9 | 95.9 | 93.6
3 | CC(C)C[C@H](NC(=O)[C@@H](NC(=O)[C@H](Cc1ccc(O)cc1)NC(=O)[C@@H]1CCCN1C(=O)[C@H](CCCNC(=N)N)NC(=O)C(NC(=O)[C@@H]1CCCN1C(=O)[C@H](CCCCN)NC(=O)[C@H](CC(N)=O)NC(=O)[C@H](CCC(=O)O)NC(=O)[C@@H](Cc1ccc(O)cc1)NC(=O)CN(CCN(CCN(CC(=O)O)CC(=O)O)CC(=O)O)CC(=O)O)C1CCN(C(=N)N)CC1)C(C)(C)C)C(=O)O (stereo partly drawn) [Compound XIII, DTPA-DTyr-Glu-Asn-Lys-Pro-Gly(PipAm)-Arg-Pro-Tyr-tBuGly-Leu-OH] ({DTPA}-[dY]ENKP[ξGly(4-Pip(1-amidino))]RPY[Tle]L-OH) |  | 4.5 | 94.9 | 86.8
4 | CC(C)(C)[C@H](NC(=O)[C@H](Cc1ccc(O)cc1)NC(=O)[C@@H]1CCCN1C(=O)[C@H](CCCNC(=N)N)NC(=O)C(NC(=O)[C@@H]1CCCN1C(=O)[C@H](CCCCN)NC(=O)[C@H](CC(N)=O)NC(=O)[C@H](CCC(=O)O)NC(=O)[C@@H](Cc1ccc(O)cc1)NC(=O)CN(CCN(CCN(CC(=O)O)CC(=O)O)CC(=O)O)CC(=O)O)C1CCN(C(=N)N)CC1)C(=O)N[C@@H](CC1CCCCC1)C(=O)O (stereo partly drawn) [Compound XIV, DTPA-DTyr-Glu-Asn-Lys-Pro-Gly(PipAm)-Arg-Pro-Tyr-tBuGly-Cha-OH] ({DTPA}-[dY]ENKP[ξGly(4-Pip(1-amidino))]RPY[Tle][Cha]-OH) |  | 4.5 | 93.9 | 81.8
5 | CC(C)(C)C[C@H](NC(=O)[C@@H](NC(=O)[C@H](Cc1ccc(O)cc1)NC(=O)[C@@H]1CCCN1C(=O)[C@H](CCCNC(=N)N)NC(=O)C(NC(=O)[C@@H]1CCCN1C(=O)[C@H](CCCCN)NC(=O)[C@H](CC(N)=O)NC(=O)[C@H](CCC(=O)O)NC(=O)[C@@H](Cc1ccc(O)cc1)NC(=O)CN(CCN(CCN(CC(=O)O)CC(=O)O)CC(=O)O)CC(=O)O)C1CCN(C(=N)N)CC1)C(C)(C)C)C(=O)O (stereo partly drawn) [Compound XV, DTPA-DTyr-Glu-Asn-Lys-Pro-Gly(PipAm)-Arg-Pro-Tyr-tBuGly-tBuAla-OH] ({DTPA}-[dY]ENKP[ξGly(4-Pip(1-amidino))]RPY[Tle][tBuAla]-OH) |  | 3.5 | 98.9 | 89.8
6 | CC(C)C[C@H](NC(=O)[C@@H](NC(=O)[C@H](Cc1ccc(O)cc1)NC(=O)[C@@H]1CCCN1C(=O)[C@H](CCCNC(=N)N)NC(=O)C(NC(=O)[C@@H]1CCN1C(=O)[C@@H](CCCCN)NC(=O)CN(CCN(CCN(CC(=O)O)CC(=O)O)CC(=O)O)CC(=O)O)C1CCN(C(=N)N)CC1)C(C)(C)C)C(=O)O (stereo partly drawn) [DTPA-DLys-AzeCA-Gly(PipAm)-Arg-Pro-Tyr-tBuGly-Leu-OH] ({DTPA}-[dK][Aze][ξGly(4-Pip(1-amidino))]RPY[Tle]L-OH) |  | 24 | 79.5 | 49.8
7 | CC[C@H](C)[C@H](NC(=O)[C@H](Cc1ccc(O)cc1)NC(=O)[C@@H]1CCCN1C(=O)C(Cc1ccc(NC(=N)N)cc1)NC(=O)C(Cc1ccc(NC(=N)N)cc1)NC(=O)[C@@H]1CCCN1C(=O)[C@@H](CCCCN)NC(=O)CN(CCN(CCN(CC(=O)O)CC(=O)O)CC(=O)O)CC(=O)O)C(=O)N[C@@H](CC(C)C)C(=O)O (stereo partly drawn) [DTPA-DLys-Pro-(4-Gu)Phe-(4-Gu)Phe-Pro-Tyr-Ile-Leu-OH] ({DTPA}-[dK]P[ξPhe(4-guanidino)][ξPhe(4-guanidino)]PYIL-OH) |  | 175 | 25.2 | 2.3
8 | CC(C)C[C@H](NC(=O)[C@@H](NC(=O)[C@H](Cc1ccc(O)cc1)NC(=O)[C@@H]1CC(=O)CN1C(=O)[C@H](CCCNC(=N)N)NC(=O)C(NC(=O)[C@@H]1CCCN1C(=O)[C@@H](CCCCN)NC(=O)CN(CCN(CCN(CC(=O)O)CC(=O)O)CC(=O)O)CC(=O)O)C1CCN(C(=N)N)CC1)C(C)(C)C)C(=O)O (stereo partly drawn) [DTPA-DLys-Pro-Gly(PipAm)-Arg-(4-oxo)Pro-Tyr-tBuGly-Leu-OH] ({DTPA}-[dK]P[ξGly(4-Pip(1-amidino))]R[Pro(4-oxo)]Y[Tle]L-OH) |  | > 1000 | 78.5 | 79.7
9 | CC(C)C[C@H](NC(=O)[C@@H](NC(=O)[C@H](Cc1ccc(O)cc1)NC(=O)[C@@H]1CCN1C(=O)[C@H](CCCNC(=N)N)NC(=O)C(NC(=O)[C@@H]1CCCN1C(=O)[C@@H](CCCCN)NC(=O)CN(CCN(CCN(CC(=O)O)CC(=O)O)CC(=O)O)CC(=O)O)C1CCN(C(=N)N)CC1)C(C)(C)C)C(=O)O (stereo partly drawn) [DTPA-DLys-Pro-Gly(PipAm)-Arg-AzeCA-Tyr-tBuGly-Leu-OH] ({DTPA}-[dK]P[ξGly(4-Pip(1-amidino))]R[Aze]Y[Tle]L-OH) |  | 740 | 79.2 | 36.5
10 | CC(C)C[C@H](NC(=O)[C@@H](NC(=O)[C@H](Cc1ccc(O)cc1)NC(=O)[C@H]1CCCCN1C(=O)[C@H](CCCNC(=N)N)NC(=O)C(NC(=O)[C@@H]1CCCN1C(=O)[C@@H](CCCCN)NC(=O)CN(CCN(CCN(CC(=O)O)CC(=O)O)CC(=O)O)CC(=O)O)C1CCN(C(=N)N)CC1)C(C)(C)C)C(=O)O (stereo partly drawn) [DTPA-DLys-Pro-Gly(PipAm)-Arg-DPipCA-Tyr-tBuGly-Leu-OH] ({DTPA}-[dK]P[ξGly(4-Pip(1-amidino))]R[dPip]Y[Tle]L-OH) |  | > 1000 | 96.2 | 91.9
11 | CC(C)C[C@H](NC(=O)[C@@H](NC(=O)[C@H](Cc1ccc(O)cc1)NC(=O)[C@@H]1CCCCN1C(=O)[C@H](CCCNC(=N)N)NC(=O)C(NC(=O)[C@@H]1CCCN1C(=O)[C@@H](CCCCN)NC(=O)CN(CCN(CCN(CC(=O)O)CC(=O)O)CC(=O)O)CC(=O)O)C1CCN(C(=N)N)CC1)C(C)(C)C)C(=O)O (stereo partly drawn) [DTPA-DLys-Pro-Gly(PipAm)-Arg-PipCA-Tyr-tBuGly-Leu-OH] ({DTPA}-[dK]P[ξGly(4-Pip(1-amidino))]R[Pip]Y[Tle]L-OH) |  | > 1000 | 69.5 | 45.8
12 | Cc1cc(O)cc(C)c1C[C@H](NC(=O)[C@@H]1CCCN1C(=O)[C@H](CCCNC(=N)N)NC(=O)C(NC(=O)[C@@H]1CCCN1C(=O)[C@@H](CCCCN)NC(=O)CN(CCN(CCN(CC(=O)O)CC(=O)O)CC(=O)O)CC(=O)O)C1CCN(C(=N)N)CC1)C(=O)N[C@H](C(=O)N[C@@H](CC(C)C)C(=O)O)C(C)(C)C (stereo partly drawn) [DTPA-DLys-Pro-Gly(PipAm)-Arg-Pro-(2,6-diMe)Tyr-tBuGly-Leu-OH] ({DTPA}-[dK]P[ξGly(4-Pip(1-amidino))]RP[Dmt][Tle]L-OH) |  | 45 | 96.6 | 99.2
13 | CC(C)C[C@H](NC(=O)C1(NC(=O)[C@H](Cc2ccc(O)cc2)NC(=O)[C@@H]2CCCN2C(=O)[C@H](CCCNC(=N)N)NC(=O)C(NC(=O)[C@@H]2CCCN2C(=O)[C@@H](CCCCN)NC(=O)CN(CCN(CCN(CC(=O)O)CC(=O)O)CC(=O)O)CC(=O)O)C2CCN(C(=N)N)CC2)CCCCC1)C(=O)O (stereo partly drawn) [DTPA-DLys-Pro-Gly(PipAm)-Arg-Pro-Tyr-Achc-Leu-OH] ({DTPA}-[dK]P[ξGly(4-Pip(1-amidino))]RPY[Ac6c]L-OH) |  | > 10000 | 89.9 | 84.9
14 | CC(C)(C)[C@H](NC(=O)[C@H](Cc1ccc(O)cc1)NC(=O)[C@@H]1CCCN1C(=O)[C@H](CCCNC(=N)N)NC(=O)C(NC(=O)[C@@H]1CCCN1C(=O)[C@@H](CCCCN)NC(=O)CN(CCN(CCN(CC(=O)O)CC(=O)O)CC(=O)O)CC(=O)O)C1CCN(C(=N)N)CC1)C(=O)N[C@@H](CC1CCCCC1)C(=O)O (stereo partly drawn) [DTPA-DLys-Pro-Gly(PipAm)-Arg-Pro-Tyr-tBuGly-Cha-OH] ({DTPA}-[dK]P[ξGly(4-Pip(1-amidino))]RPY[Tle][Cha]-OH) |  | 12 | 81.2 | 65.9
